Experimental data: patent US20210361774A1, “DEGRADERS OF WILD-TYPE AND MUTANT FORMS OF LRRK2” (DANA-FARBER CANCER INSTITUTE, INC., priority 2018, published 2021)

Assays:
LRRK2 wt = molecular target: T1, LRRK2 wt (Homo sapiens, UniProt Q5S007); assay: IC50 experiments, Invitrogen Adapta assay, LRRK2 wt; format: biochemical
T1 construct: purchased Invitrogen
Method: (§1) IC50 experiments were performed using Invitrogen™'s Adapta™ assay.

LRRK2 G2019S = molecular target: T2, LRRK2 G2019S (Homo sapiens, UniProt Q5S007, G2019S); assay: IC50 experiments, Invitrogen Adapta assay, LRRK2 G2019S; format: biochemical
T2 construct: purchased Invitrogen
T2 sequence (Q5S007 whole entry G2019S): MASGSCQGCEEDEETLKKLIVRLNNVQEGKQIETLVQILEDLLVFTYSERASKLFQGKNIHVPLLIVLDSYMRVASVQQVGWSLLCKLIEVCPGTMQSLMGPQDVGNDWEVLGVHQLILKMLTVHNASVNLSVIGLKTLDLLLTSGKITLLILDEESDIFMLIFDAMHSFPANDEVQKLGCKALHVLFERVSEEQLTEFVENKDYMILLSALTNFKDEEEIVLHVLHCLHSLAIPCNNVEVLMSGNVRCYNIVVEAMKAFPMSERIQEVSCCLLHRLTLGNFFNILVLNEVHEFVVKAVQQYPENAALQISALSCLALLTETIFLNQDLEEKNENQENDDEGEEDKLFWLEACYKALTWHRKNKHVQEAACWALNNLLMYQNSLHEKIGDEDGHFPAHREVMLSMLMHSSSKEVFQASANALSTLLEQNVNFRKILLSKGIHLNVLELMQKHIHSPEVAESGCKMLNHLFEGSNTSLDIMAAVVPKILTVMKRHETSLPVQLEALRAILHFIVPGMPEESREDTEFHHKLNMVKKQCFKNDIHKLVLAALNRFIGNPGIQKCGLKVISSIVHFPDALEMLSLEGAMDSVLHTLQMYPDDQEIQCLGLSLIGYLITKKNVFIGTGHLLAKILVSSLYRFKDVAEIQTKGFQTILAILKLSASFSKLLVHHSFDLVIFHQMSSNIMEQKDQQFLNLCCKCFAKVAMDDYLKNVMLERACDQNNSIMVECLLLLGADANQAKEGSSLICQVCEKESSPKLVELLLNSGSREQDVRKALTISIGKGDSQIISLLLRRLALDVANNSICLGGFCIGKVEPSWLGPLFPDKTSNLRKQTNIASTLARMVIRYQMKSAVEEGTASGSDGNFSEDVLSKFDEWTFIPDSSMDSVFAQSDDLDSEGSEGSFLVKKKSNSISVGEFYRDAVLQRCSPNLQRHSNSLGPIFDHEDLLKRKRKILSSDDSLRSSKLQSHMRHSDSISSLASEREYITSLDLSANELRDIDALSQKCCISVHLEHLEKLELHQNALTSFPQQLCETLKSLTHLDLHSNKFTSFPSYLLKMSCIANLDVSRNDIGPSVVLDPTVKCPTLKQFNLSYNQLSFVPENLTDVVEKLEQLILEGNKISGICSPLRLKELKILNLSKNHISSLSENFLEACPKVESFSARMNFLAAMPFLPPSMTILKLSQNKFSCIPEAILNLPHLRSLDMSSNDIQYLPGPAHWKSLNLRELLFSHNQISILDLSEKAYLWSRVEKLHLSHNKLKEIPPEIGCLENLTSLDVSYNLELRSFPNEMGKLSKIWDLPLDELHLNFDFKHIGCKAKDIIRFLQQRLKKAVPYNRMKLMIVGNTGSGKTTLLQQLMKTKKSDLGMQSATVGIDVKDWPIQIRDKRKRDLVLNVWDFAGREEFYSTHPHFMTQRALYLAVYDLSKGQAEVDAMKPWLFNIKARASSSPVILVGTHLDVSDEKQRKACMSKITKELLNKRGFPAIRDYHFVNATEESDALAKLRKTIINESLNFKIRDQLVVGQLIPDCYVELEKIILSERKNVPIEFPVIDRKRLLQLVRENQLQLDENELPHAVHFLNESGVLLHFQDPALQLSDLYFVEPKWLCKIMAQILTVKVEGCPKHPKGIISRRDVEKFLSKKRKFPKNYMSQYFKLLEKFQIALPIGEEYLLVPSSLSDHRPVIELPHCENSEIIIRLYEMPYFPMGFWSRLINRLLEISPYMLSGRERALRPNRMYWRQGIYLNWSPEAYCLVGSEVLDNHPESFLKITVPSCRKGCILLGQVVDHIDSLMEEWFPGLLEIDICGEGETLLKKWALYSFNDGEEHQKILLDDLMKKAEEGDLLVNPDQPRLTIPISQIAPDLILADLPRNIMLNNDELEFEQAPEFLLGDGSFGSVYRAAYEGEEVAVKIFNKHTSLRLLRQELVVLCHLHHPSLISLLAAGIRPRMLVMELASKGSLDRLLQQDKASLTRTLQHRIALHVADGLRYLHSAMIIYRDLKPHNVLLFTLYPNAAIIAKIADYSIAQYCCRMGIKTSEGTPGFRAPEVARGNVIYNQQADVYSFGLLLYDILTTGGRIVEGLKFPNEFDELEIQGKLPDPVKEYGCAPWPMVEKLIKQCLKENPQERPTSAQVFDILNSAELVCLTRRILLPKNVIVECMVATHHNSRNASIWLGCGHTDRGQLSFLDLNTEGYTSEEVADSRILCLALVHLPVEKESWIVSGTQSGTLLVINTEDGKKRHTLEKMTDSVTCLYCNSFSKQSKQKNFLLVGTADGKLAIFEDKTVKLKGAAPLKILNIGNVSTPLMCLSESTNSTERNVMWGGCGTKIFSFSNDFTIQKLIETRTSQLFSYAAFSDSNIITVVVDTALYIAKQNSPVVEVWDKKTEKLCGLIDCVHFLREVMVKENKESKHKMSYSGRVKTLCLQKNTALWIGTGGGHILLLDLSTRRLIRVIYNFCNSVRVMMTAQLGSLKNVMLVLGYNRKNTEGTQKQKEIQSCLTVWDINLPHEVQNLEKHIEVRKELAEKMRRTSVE
Method: as §1

LRRK2 = assay: Cellular degradation of LRRK2, Western blot in MEFs; format: cell-based, Mouse; settings: for degradation of LRRK2 (total level): Western blot, time course, 0 nM-1000 nM; for level of LRRK2 (degradation): after 48 hours (FIG. 18)
Method: (§2) Cell lines used: Mouse embryonic fibroblast (MEF) WT, LRRK2 homozygous knock-ins in MEFs [R1441C; VPS35N(D620N); G2019S].
(§3) Tested concentration of LRRK2 degraders: 0 nM, 10 nM, 30 nM, 100 nM, 300 nM, 1000 nM. Additional concentrations tested for inventive compound 3: 2 uM, 5 uM and 10 uM.
(§4) Complete growth medium: DMEM supplemented with: 10% Fetal Bovine Serum; 1% pen/strep; 1% L-Glutamine; 1% MEM Non-essential Amino Acid Solution; 1% sodium pyruvate.
(§5) Commercial and in-house purified antibodies: • (a) Mouse anti-LRRK2/Dardarin antibody from Antibodies, Inc. (Cat #75-253). • (b) Rabbit monoclonal antibodies for total LRRK2 (UDD3) and pS935-LRRK2 (UDD2) were purified at the University of Dundee (as described in Dzamko et al., PLoS One 7(6): e39132 (2012). • (c) Loading controls: anti-α-tubulin (Cell Signaling Technology #5174); anti-GAPDH (Santa Cruz Biotechnology Cat. #sc-32233) • (d) (p)Rab10 antibodies: rabbit anti-RAB10 (phospho T73) antibody [MJF-R21] (ab230261); mouse MJFF-total Rab10 monoclonal antibody were generated by nanoTools (www.nanotools.de); rabbit Rab10 total was from Cell Signaling Technology (Rab10 (D36C4) XP® Rabbit mAb #8127)
(§6) Treatment: WT MEF, R1441C, VPS35N and G2019S mutants' cells were plated at equal density into 6-well plates in a final volume of 3 mL of complete growth medium/well. Degraders were reconstituted in DMSO and used at 1:1000 in cells i.e. 3 μl/3 ml. Treatment began when cells were >60% confluent, starting from a 48-hour time point, followed by a 24-hour time point, a 6-hour time point and finally a 1-hour time point.
(§7) Cell lysis: Media were aspirated, plates were placed on ice and cells were washed with Dulbecco's phosphate-buffered saline (DPBS). Fifty microliters of an ice-cold lysis buffer containing 50 mM Tris-HCl, pH 7.5, 1% (v/v) Triton X-100, 1 mM ethylene glycol-bis(μ-aminoethyl ether)-N,N,N′,N′-tetraacetic acid (EGTA), 1 mM sodium orthovanadate, 50 mM NaF, 0.1% (v/v) 2-mercaptoethanol, 10 mM 2-glycerophosphate, 5 mM sodium pyrophosphate, 0.1 μg/ml microcystin-LR (Enzo Life Sciences), 270 mM sucrose and complete EDTA-free protease inhibitor cocktail (Sigma-Aldrich Cat #11836170001) was added per well. Lysates were centrifuged at 20,817 g (14,000 rpm) for 15 min at 4° C. and supernatants were used to determine protein concentration using Bradford assay (Pierce™ Coomassie (Bradford) Protein Assay Kit, Thermo Scientific™ Cat #23200) and for Western blot analysis.
(§8) Western blot analysis: Cell lysates were mixed with 4× SDS-PAGE sample buffer [50 mM Tris-HCl, pH 6.8, 2% (w/v) SDS, 10% (v/v) glycerol, 0.02% (w/v) Bromophenol Blue and 1% (v/v) 2-mercaptoethanol] to a final total protein concentration of 1 μg/μl and heated at 95° C. for 5 minutes. Twenty micrograms of samples were loaded onto NuPAGE™ 4-12% Bis-Tris gradient gels (Life Technologies) along with 3 μl of BIO-RAD protein marker (Precision Plus Protein™ All Blue Prestained Protein Standards #1610373 kDa), gels were run in duplicates at 110V for 2 hours and 30 minutes with the NuPAGE™ MOPS SDS running buffer (Life Technologies, Cat #NP0001-02). After electrophoresis, the separated proteins were transferred onto the nitrocellulose membrane (GE Healthcare, Amersham Protran 0.45 μm NC) at 90 V for 90 minutes. Transferred membranes were briefly stained with Ponceau S stain and divided into 3 strips, as described earlier in Fan et al., Biochem. J. 475:23-44 (2018). Briefly, upper strip was cut from the top of the membrane to 75 kDa, middle strip cut was between 75 kDa—30 kDa and bottom strip cut was from 30 kDa—to the bottom of the membrane. Membrane strips were blocked at room temperature with 5% (w/v) dried skimmed milk dissolved in TBS-T [20 mM Tris-HCl, pH 7.5, 150 mM NaCl and 0.1% (v/v) Tween® 20] for 1 hour, washed four times with ten minutes intervals in TBS-T and incubated with primary antibodies diluted in 5% BSA (bovine serum albumin) in TBS-T overnight at 4° C. […]

LRRK2 pS935 = assay: Inhibition of phosphorylation of S935, Western blot in MEFs; format: cell-based, Mouse; settings: for inhibition of phosphorylation of S935: Western blot, time course, 0 nM-1000 nM
Method: as §2, §3, §4, §5, §6, §7, §8

Rab10 (phospho T73) = assay: Inhibition of phosphorylation of Rab10, Western blot in MEFs; format: cell-based, Mouse; settings: for inhibition of phosphorylation of Rab10: Western blot, time course, 0 nM-1000 nM
Method: as §2, §3, §4, §5, §6, §7, §8

T1 sequence (Q5S007 whole entry): as the sequence (Q5S007 whole entry G2019S) above, with S2019G counted along it

Row | SMILES | IC50 (LRRK2 wt) | IC50 (LRRK2 G2019S) | degradation of LRRK2 (total level) (LRRK2) | inhibition of phosphorylation of S935 (LRRK2 pS935) | inhibition of phosphorylation of Rab10 (Rab10 (phospho T73)) | level of LRRK2 (degradation) (LRRK2) | inhibition of pS935 (LRRK2 pS935; after 48 hours (FIG. 18)) | inhibition of pRAB10 (Rab10 (phospho T73); after 48 hours (FIG. 18))
1 | CNc1nc(Nc2ccc(C(=O)N3CCN(C(=O)CCOCCOCCOCCOCCNc4cccc5c4C(=O)N(C4CCC(=O)NC4=O)C5=O)CC3)cc2OC)ncc1C(F)(F)F (stereo not shown) [Compound 1] | 4 nM | 2 nM | did not degrade | inhibited | inhibited |  |  | 
2 | CNc1nc(Nc2ccc(C(=O)N3CCN(C(=O)CCOCCOCCNc4cccc5c4C(=O)N(C4CCC(=O)NC4=O)C5=O)CC3)cc2OC)ncc1C(F)(F)F (stereo not shown) [Compound 2] | 2 nM | 1 nM | did not degrade | inhibited | inhibited |  |  | 
3 | CNc1nc(Nc2ccc(C(=O)N3CCN(CCOCCOCCOCCNc4cccc5c4C(=O)N(C4CCC(=O)NC4=O)C5=O)CC3)cc2OC)ncc1C(F)(F)F (stereo not shown) [Compound 5] |  |  | did not degrade | inhibited | inhibited |  |  | 
4 | CC1(Oc2ccc3[nH]nc(-c4cc(N5CCN(C(=O)CCOCCOCCNc6cccc7c6C(=O)N(C6CCC(=O)NC6=O)C7=O)CC5)ncn4)c3c2)CC1 (stereo not shown) [Compound 8, 2-(2,6-dioxopiperidin-3-yl)-4-((2-(2-(3-(4-(6-(5-(1-methylcyclopropoxy)-1H-indazol-3-yl)pyrimidin-4-yl)piperazin-1-yl)-3-oxopropoxy)ethoxy)ethyl)amino)isoindoline-1,3-dione] | 1.24 nM | 1.13 nM | decreased | inhibited |  | degraded |  | 
5 | CC1(Oc2ccc3[nH]nc(-c4cc(N5CCN(C(=O)CCOCCOCCOCCOCCNc6cccc7c6C(=O)N(C6CCC(=O)NC6=O)C7=O)CC5)ncn4)c3c2)CC1 (stereo not shown) [Compound 9] | 1.46 nM | 0.98 nM | decreased | inhibited |  |  |  | 
6 | CC1(Oc2ccc3[nH]nc(-c4cc(N5CCN(C(=O)CCOCCNc6cccc7c6C(=O)N(C6CCC(=O)NC6=O)C7=O)CC5)ncn4)c3c2)CC1 (stereo not shown) [Compound 10, 2-(2,6-dioxopiperidin-3-yl)-4-((2-(3-(4-(6-(5-(1-methylcyclopropoxy)-1H-indazol-3-yl)pyrimidin-4-yl)piperazin-1-yl)-3-oxopropoxy)ethyl)amino)isoindoline-1,3-dione] | 1.59 nM | 1.08 nM | Less degradation | inhibited |  |  |  | 
7 | CC1(Oc2ccc3[nH]nc(-c4cc(N5CCN(C(=O)CCOCCNc6cccc7c6C(=O)N(C6CCC(=O)NC6=O)C7)CC5)ncn4)c3c2)CC1 (stereo not shown) [Compound 11, 3-(7-((2-(3-(4-(6-(5-(1-methylcyclopropoxy)-1H-indazol-3-yl)pyrimidin-4-yl)piperazin-1-yl)-3-oxopropoxy)ethyl)amino)-1-oxoisoindolin-2-yl)piperidine-2,6-dione] | 2.5 nM | 1.47 nM | Some degradation | inhibits |  |  |  | 
8 | CC1(Oc2ccc3[nH]nc(-c4cc(N5CCN(C(=O)CCOCCOCCNc6cccc7c6C(=O)N(C6CCC(=O)NC6=O)C7)CC5)ncn4)c3c2)CC1 (stereo not shown) [Compound 12, 3-(7-((2-(2-(3-(4-(6-(5-(1-methylcyclopropoxy)-1H-indazol-3-yl)pyrimidin-4-yl)piperazin-1-yl)-3-oxopropoxy)ethoxy)ethyl)amino)-1-oxoisoindolin-2-yl)piperidine-2,6-dione] | 2.58 nM | 2.24 nM | Minor degradation | inhibited |  |  |  | 
9 | CC1(Oc2ccc3[nH]nc(-c4cc(N5CCN(C(=O)CCOCCOCCOCCOCCNc6cccc7c6C(=O)N(C6CCC(=O)NC6=O)C7)CC5)ncn4)c3c2)CC1 (stereo not shown) [Compound 13] | 3.14 nM | 3.16 nM | Some degradation | inhibited |  |  |  | 
10 | Cc1ncsc1-c1ccc([C@@H](C)NC(=O)[C@H]2C[C@H](O)CN2C(=O)[C@H](NC(=O)CCOCCOCCOCCC(=O)N2CCN(c3cc(-c4n[nH]c5ccc(OC6(C)CC6)cc45)ncn3)CC2)C(C)(C)C)cc1 [Compound 14, (2R,4S)-1-((R)-2-(tert-butyl)-16-(4-(6-(5-(1-methylcyclopropoxy)-1H-indazol-3-yl)pyrimidin-4-yl)piperazin-1-yl)-4,16-dioxo-7,10,13-trioxa-3-azahexadecanoyl)-4-hydroxy-N—((R)-1-(4-(4-methylthiazol-5-yl)phenyl)ethyl)pyrrolidine-2-carboxamide] |  |  | No degradation | inhibited | inhibited |  |  | 
11 | Cc1ncsc1-c1ccc([C@H](C)NC(=O)[C@@H]2C[C@@H](O)CN2C(=O)[C@@H](NC(=O)CCOCCOCCOCCOCCC(=O)N2CCN(c3cc(-c4n[nH]c5ccc(OC6(C)CC6)cc45)ncn3)CC2)C(C)(C)C)cc1 [Compound 15] |  |  | No degradation | inhibited | inhibited |  |  | 
12 | CC1(Oc2ccc3[nH]nc(-c4cc(N5CCN(C(=O)CCOCCOCCNc6cccc7c6C(=O)N(C6CCCNC6=O)C7=O)CC5)ncn4)c3c2)CC1 (stereo not shown) [Compound 16] |  |  |  |  |  | did not reduce | potently inhibited | potently inhibited
13 | CN1CCN(c2cc(-c3n[nH]c4ccc(OC5(C)CC5)cc34)ncn2)CC1 [MLi-2 analog, 5-(1-methylcyclopropyl)oxy-3-[6-(4-methylpiperazin-1-yl)pyrimidin-4-yl]-1H-indazole, reference compound] |  |  | did not decrease | inhibits |  |  |  | 
